The target of the assay is T1, KIT V654A (Homo sapiens, UniProt P10721, V654A).
T1 construct: purchased Thermo Fisher Scientific (Life Technologies) SelectScreen
As to the kind of experiment: SelectScreen LanthaScreen. Format: binding. The note with it: read-out: % displacement. The method in brief: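 SelectScreen broad panel; activity (Z'LYTE, Adapta) plus binding formats. ATP: Km app for CSF1R Z'LYTE; 10 for CAMK1 Adapta. Readout = % per kinase.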
(Time-resolved FRET reads energy transfer from a long-lived donor to a nearby acceptor.)

T1 sequence (P10721 26-976 V654A): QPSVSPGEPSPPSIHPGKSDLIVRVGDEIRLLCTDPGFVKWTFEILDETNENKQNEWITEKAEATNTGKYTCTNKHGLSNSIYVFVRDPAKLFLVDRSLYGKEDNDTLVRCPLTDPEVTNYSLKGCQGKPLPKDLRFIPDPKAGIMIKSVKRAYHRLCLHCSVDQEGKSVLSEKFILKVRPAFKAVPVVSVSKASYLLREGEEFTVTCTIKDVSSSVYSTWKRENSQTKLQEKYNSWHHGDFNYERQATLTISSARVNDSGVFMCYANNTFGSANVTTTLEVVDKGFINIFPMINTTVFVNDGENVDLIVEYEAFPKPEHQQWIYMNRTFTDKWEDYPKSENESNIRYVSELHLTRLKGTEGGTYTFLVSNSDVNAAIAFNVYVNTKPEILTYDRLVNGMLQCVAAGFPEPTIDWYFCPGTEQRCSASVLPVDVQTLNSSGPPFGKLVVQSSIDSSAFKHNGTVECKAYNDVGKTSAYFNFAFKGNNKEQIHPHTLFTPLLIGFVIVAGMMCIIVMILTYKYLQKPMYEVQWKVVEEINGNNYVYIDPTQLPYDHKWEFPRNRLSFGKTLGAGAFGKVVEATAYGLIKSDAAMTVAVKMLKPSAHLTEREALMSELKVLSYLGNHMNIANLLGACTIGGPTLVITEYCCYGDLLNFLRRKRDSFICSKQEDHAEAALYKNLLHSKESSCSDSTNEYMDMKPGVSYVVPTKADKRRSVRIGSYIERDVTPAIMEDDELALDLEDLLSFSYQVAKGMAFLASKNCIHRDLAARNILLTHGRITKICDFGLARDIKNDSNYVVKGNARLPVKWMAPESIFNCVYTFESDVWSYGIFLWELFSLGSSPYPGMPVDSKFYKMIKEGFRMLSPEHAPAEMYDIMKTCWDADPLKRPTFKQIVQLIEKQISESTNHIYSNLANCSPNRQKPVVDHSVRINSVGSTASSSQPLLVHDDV

Take `CN(C(=O)CN1CCOCC1)c1ccc2sc3c(-c4cccc5c(=O)cc(N6CC7CCC(C6)O7)oc45)cccc3c2c1` [NU5455]: the inhibition at 1 µM was determined as 8.1%.
